The source of these data is patent publication US20230067406A1, “Herbicide Combinations Comprising Glufosinate and Flumioxazin” (BASF SE, priority 2020, published 2023).

The subject of the experiment is Kochia (Bassia scoparia). The experiment can be described thus: Greenhouse post emergence treatment, herbicidal activity by visual control on a 0 to 100 scale. The format is in vivo. Particulars: scale 0 to 100, mean of three replications. From the text:
Synergism can be described as an interaction where the combined effect of two or more compounds is greater than the sum of the individual effects of each of the compounds. The presence of a synergistic effect in terms of percent control, between two mixing partners (X and Y) can be calculated using the Colby equation (Colby, S. R., 1967, Calculating Synergistic and Antagonistic Responses in Herbicide Combinations, Weeds, 15, 21-22):
When the observed combined control effect is greater than the expected (calculated) combined control effect (E), then the combined effect is synergistic.
Weed included Kochia (Bassia scoparia). However, the herbicidal effect afforded by the compounds, mixtures or compositions is not limited to these species. The analysis of synergism or antagonism between the mixtures or compositions was determined using Colby's equation. • Test Method: […]
Pots with 0.3 L of volume were filled with soil (SunGroco Horticulture, Agawam, MA 01001) to grow one plant per pot in the greenhouse until the desired developmental stage.
Environmental conditions inside the greenhouse were setup for 25° C., 75% relative humidity, and 12 h light day-1 with natural sunlight or 500 μmol m−1 s−1 PAR for cloudy days. […]
The test period extended to 2 to 21 days after treatment. During this time, the plants were tended, and their response to the individual treatments was evaluated. […]

Regarding `CP(=O)(O)CCC(N)C(=O)O` (racemic) [Glufosinate, (2RS)-2-amino-4-[hydroxy(methyl)phosphinoyl]butyric acid], the “Herbicidal activity against Kochia (21 DAT), Found” value (Glufosinate 420 g ai/ha alone) is listed as 25.

As for `C#CCN1C(=O)COc2cc(F)c(N3C(=O)C4=C(CCCC4)C3=O)cc21` [Flumioxazin, flumioxazin], under “Flumioxazin 2.5 g ai/ha alone”, the “Herbicidal activity against Kochia (21 DAT), Found” value was 4.
